Measured values: patent US9113629B2, “4-amino-6-(4-substituted-phenyl)-picolinates and 6-amino-2-(4-substituted-phenyl)-pyrimidine-4-carboxylates and their use as herbicides” (DOW AGROSCIENCES LLC, priority 2013, dated 2015)
Read-outs that look alike come from different tables or passages of the source.

Experiments:
[1] = tested on: Key Grass and Sedge Weeds as well as Grass Crops; assay: Post-emergent Test II herbicidal activity (Table 6); type: in vivo; settings: post-emergence, 336 h; for pest or weed control at 70 g/ha: application rate 70 g ai/ha; for pest or weed control at 140 g/ha: application rate 140 g ai/ha
Summary of the method: (§1)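 Plants grown in Metro-Mix 360 (pH 6.0–6.8) in a greenhouse (~15 h photoperiod, 23–29 °C day) to first or second true leaf stage, then sprayed with compound in acetone/DMSO/aqueous crop-oil-surfactant carrier at 187 L/ha by track sprayer. Injury visually scored 0–100% versus untreated plants after 14 d.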

[2] = tested on: Key Broadleaf Weed and Crop Species; assay: Post-emergent Test II herbicidal activity (Table 5); type: in vivo; settings: post-emergence, 336 h, post-emergent, 14 days after application; for pest or weed control at 70 g/ha: 70 g ai/ha; for pest or weed control at 140 g/ha: 140 g ai/ha
Summary of the method: as §1

[3] = Triticum aestivum, TRZSS (wheat), read-out: Visual Growth Reduction (%) 14 Days After Application, TRZSS
[4] = DIGSA: crabgrass (Digitaria sanguinalis), read-out: Visual Growth Reduction (%) 14 Days After Application, DIGSA
[5] = ECHCG: barnyardgrass (Echinochloa crus-galli), read-out: Visual Growth Reduction (%) 14 Days After Application, ECHCG
[6] = ORYSA: rice (Oryza sativa), read-out: Visual Growth Reduction (%) 14 Days After Application, ORYSA
[7] = SETFA: giant foxtail (Setaria faberi), read-out: Visual Growth Reduction (%) 14 Days After Application, SETFA
[8] = SORVU: grain sorghum (Sorghum vulgare), read-out: Visual Growth Reduction (%) 14 Days After Application, SORVU
[9] = ZEAMX: maize, corn (Zea mays), read-out: Visual Growth Reduction (%) 14 Days After Application, ZEAMX
[10] = ABUTH: velvetleaf (Abutilon theophrasti), read-out: Visual Growth Reduction (%) 14 Days After Application ABUTH
[11] = AMARE: redroot pigweed (Amaranthus retroflexus), read-out: Visual Growth Reduction (%) 14 Days After Application AMARE
[12] = BRSNN: oilseed-rape, canola (Brassica napus), read-out: Visual Growth Reduction (%) 14 Days After Application BRSNN
[13] = CHEAL: lambsquarters (Chenopodium album), read-out: Visual Growth Reduction (%) 14 Days After Application CHEAL
[14] = EPHHL: wild poinsettia (Euphorbia heterophylla), read-out: Visual Growth Reduction (%) 14 Days After Application EPHHL
[15] = HELAN: sunflower (Helianthus annuus), read-out: Visual Growth Reduction (%) 14 Days After Application HELAN
[16] = VIOTR: wild pansy (Viola tricolor), read-out: Visual Growth Reduction (%) 14 Days After Application VIOTR

**Q.** Which results are given for `Cc1c(-c2ccc(C(F)(F)F)c(F)c2)nc(C(=O)O)c(Cl)c1N` [Compound 161, 4-amino-3-chloro-6-(3-fluoro-4-(trifluoromethyl)phenyl)-5-methylpicolinic acid]?
**A.** pest or weed control at 70 g/ha [1, 3]: 60 to 74%; pest or weed control at 140 g/ha [1, 3]: 60 to 74%; pest or weed control at 70 g/ha ([1]; CYPES: yellow nutsedge (Cyperus esculentus), read-out: Visual Growth Reduction (%) 14 Days After Application, CYPES): 95 to 100%; pest or weed control at 70 g/ha [1, 4]: 30 to 44%; pest or weed control at 140 g/ha [1, 4]: 45 to 59%; pest or weed control at 70 g/ha [1, 5]: 45 to 59%; pest or weed control at 140 g/ha [1, 5]: 60 to 74%; pest or weed control at 70 g/ha [1, 6]: 0 to 29%; pest or weed control at 140 g/ha [1, 6]: 0 to 29%; pest or weed control at 70 g/ha [1, 7]: 85 to 94%; pest or weed control at 140 g/ha [1, 7]: 85 to 94%; pest or weed control at 70 g/ha [1, 8]: 0 to 29%; pest or weed control at 140 g/ha [1, 8]: 0 to 29%; pest or weed control at 70 g/ha [1, 9]: 60 to 74%; pest or weed control at 140 g/ha [1, 9]: 60 to 74%; pest or weed control at 70 g/ha [2, 10]: 75 to 84%; pest or weed control at 140 g/ha [2, 10]: 85 to 94%; pest or weed control at 70 g/ha [2, 11]: 45 to 59%; pest or weed control at 140 g/ha [2, 11]: 95 to 100%; pest or weed control at 70 g/ha [2, 12]: 95 to 100%; pest or weed control at 140 g/ha [2, 12]: 95 to 100%; pest or weed control at 70 g/ha [2, 13]: 95 to 100%; pest or weed control at 140 g/ha [2, 13]: 95 to 100%; pest or weed control at 70 g/ha [2, 14]: 0 to 29%; pest or weed control at 140 g/ha [2, 14]: 0 to 29%; pest or weed control at 70 g/ha [2, 15]: 95 to 100%; pest or weed control at 140 g/ha [2, 15]: 95 to 100%; pest or weed control at 70 g/ha [2, 16]: 0 to 29%; pest or weed control at 140 g/ha [2, 16]: 0 to 29%
